pEC50: −log10 of the molar value.

The first data set concerns HT22 cells. The data set can be described thus: In vitro neuroprotective activity against glutamate-induced cell death (MTS cell viability). In kind it is cell-based, mouse. To be noted: Mus musculus, HT-22, 24 h, read-out: Protection PC50. The method, then:
(§1) The HT22 neuronal cell line is a subclone of HT4, derived from the mouse hippocampus (Morimoto and Koshland, 1990). […] HT22 cells were used. The cells were grown in Dulbecco's Modified Eagle's medium (DMEM/high glucose) supplemented with 10% fetal bovine serum (Hyclone) and 5 mL Antibiotic-Antimycotic (Amphotericin B, Penicillin, and Streptomycin; Invitrogen) at 37° C. in 5% CO2.
(§2) Cell viability was assessed by the ability of the viable cells to metabolize 3-(4,5-dimethylthiazol-2-yl)-5-(3-carboxymethoxyphenyl)-2(4-sulfophenyl)2-H-tetrazolium, inner salt (MTS), as described previously (Cory et al., 1991). The metabolism of tetrazolium salts is often used to measure cellular proliferation, but in the system used here, it has been previously shown to correlate well with cell viability as determined by trypan blue exclusion and colony-forming assays (Davis and Maher, 1994). Briefly, HT-22 cells were seeded onto 96-well plates at 5.0×10^3 cells per well in 75 μL of medium and maintained at 37° C. in 5% CO2 overnight prior to the initiation of experimental treatments. For glutamate toxicity testing, cells were subsequently treated with 25 μL of medium containing glutamate (monosodium glutamate, Sigma, 1 M stock concentration in media, to achieve a final concentration of 10 mM) plus inhibitors (stock in DMSO) and maintained at 37° C. in 5% CO2. For t-BuOOH toxicity testing, cells were subsequently treated with 25 μL of medium containing t-BuOOH (Sigma, 10 mM stock concentration, to achieve a final concentration of 50 μM) plus inhibitors (stock in DMSO) and maintained at 37° C. in 5% CO2 for 3 hours, after which the media was removed, cells washed gently with HBSS, the media replaced with standard culture media, and the cells returned to incubation at 37° C. in 5% CO2. For both glutamate and t-BuOOH treatments, 10 μl of MTS solution was added to each well 24 hrs after initial treatment, and the cells were maintained in growth medium for 2 h at 37° C. Absorbance at 490 nm was subsequently measured by a SpectraMax 190 plate reader (Molecular Devices). The growth medium without cells in the presence of MTS solution was used as solution background and untreated cells were considered the controls. Cell viability was calculated as a percentage compared with untreated controls. EC50 determinations were based on 12-point titrations using GraphPad Prism, and each experiment was repeated at least four times. Morphology of HT22 cells following treatments was determined by phase-contrast microscopy. Digital images of cells grown on cell culture plates were captured at 10× magnification.
The neuroprotective properties of VK and its derivatives were estimated through their protective effects against cell death in mouse neuronal HT22 cells induced by exposure to high levels of glutamate, which recapitulates a hallmark of the extracellular environment found in several neurodegenerative diseases and CNS injuries and is a well established model of neuronal oxidative stress. This investigation began by comparing the relative abilities of the two predominant naturally occurring forms of VK, VK1 and VK2, to prevent oxidative cell death. […] Several 1,4-naphthoquinones with various substitutions at the 2′ and 3′ positions were tested to determine the minimum structural requirement of the system and what the optimum scaffold for future developmental efforts and biological validation would be (FIG. 1B and Table 1). […] Substitution by a single methyl group at the 2′ position (VK3) improves the compound's ability to protect against cell death. Various other simple substituents at the 2′ and 3′ positions give the naphthoquinone structure the ability to prevent oxidative cell death at nanomolar concentrations (Table 1 and FIG. 16).
For `NC1=CC(=O)c2ccccc2C1=O` [Compound 1d, 2-amino-1,4-naphthoquinone], the pEC50 is 7.21.
Consider `O=C1C=C(O)C(=O)c2ccccc21` [Compound 1g], for which the pEC50 is 6.00.
Still for that read-out and setting: the same measure for `O=C1C=C(Nc2ccccc2)C(=O)c2ccccc21` [Compound 2i, 2-(phenylamino)naphthalene-1,4-dione]: 7.19; for `Cc1ccc(CNC2=CC(=O)c3ccccc3C2=O)cc1` [Compound 2r, 2-((4-methylbenzyl)amino)naphthalene-1,4-dione]: 7.18.

The data set is the same for the next values; noted with them: Mus musculus, HT-22; HT22 cells, 10 mM glutamate, 24 hrs, MTS; concentration producing 50% protection; read-out: Protection PC50.
With `O=C(O)c1cc(=O)c2ccccc2o1`, the pEC50 is less than 6.00.
The same measure, in the same setting: in the case of `O=C(O)c1coc2ccccc2c1=O` it was less than 6.00; in that of `O=C(Nc1ccccc1)c1cc(=O)c2ccccc2o1` [4-oxo-N-phenyl-4H-chromene-2-carboxamide], less than 6.00; in that of `O=C(Nc1ccccc1)c1coc2ccccc2c1=O` [4-oxo-N-phenyl-4H-chromene-3-carboxamide], less than 6.00.
Same read-out and setting: the same measure for `O=C1C=CC(=O)c2ccccc21` [Compound 1a, 1,4-naphthoquinone, reference compound]: 5.81.
Turning to `CC1=C(C)C(=O)c2ccccc2C1=O` [Compound 1c], the pEC50 is 6.93.
Turning to `CC1=C(N)C(=O)c2ccccc2C1=O` [Compound 1e, 2-amino-3-methyl-1,4-naphthoquinone], the pEC50 is 5.76.
Same read-out and setting: the same measure for `O=C(O)C1=CC(=O)c2ccccc2C1=O` [Compound 1f]: 6.15; for `CNC1=CC(=O)c2ccccc2C1=O` [Compound 2a, 2-(methylamino)naphthalene-1,4-dione]: 5.87; for `CCNC1=CC(=O)c2ccccc2C1=O` [Compound 2b, 2-(ethylamino)naphthalene-1,4-dione]: 6.12.
On to `CC(C)NC1=CC(=O)c2ccccc2C1=O` [Compound 2d, 2-(isopropylamino)naphthalene-1,4-dione], for which the pEC50 is 5.77.

Test system in the next data set: not listed separately
The data set can be described thus: In vitro neurotoxicity without glutamate (MTS cell viability). To be noted: mouse, HT22 neuronal cells (without glutamate); HT22 cells without glutamate, 24 hrs, MTS; concentration producing 50% toxicity; read-out: Toxicity TC50. In kind it is cell-based, mouse. The protocol:
as §1, §2
For the compound `O=C(O)c1cc(=O)c2ccccc2o1`, the CC50 at 24 h is more than 100000 nM.
As to `O=C(O)c1coc2ccccc2c1=O`, the CC50 at 24 h was more than 100000 nM.
Turning to `O=C(Nc1ccccc1)c1cc(=O)c2ccccc2o1` [4-oxo-N-phenyl-4H-chromene-2-carboxamide], the CC50 at 24 h is more than 100000 nM.
As for `O=C(Nc1ccccc1)c1coc2ccccc2c1=O` [4-oxo-N-phenyl-4H-chromene-3-carboxamide], the CC50 at 24 h was more than 100000 nM.

The test system of a further data set is HT22 cells. The description is as above. It counts as cell-based, mouse. The conditions noted are these: HT22 cells. The protocol:
as §1, §2
As for `O=C1C=CC(=O)c2ccccc21` [Compound 1a, 1,4-naphthoquinone, reference compound], the “Safety Index TC50/PC50” value worked out at 12.
Take `CC1=C(C)C(=O)c2ccccc2C1=O` [Compound 1c]: the “Safety Index TC50/PC50” value turned out to be 254.
For the compound `NC1=CC(=O)c2ccccc2C1=O` [Compound 1d, 2-amino-1,4-naphthoquinone], the “Safety Index TC50/PC50” value is listed as 803.
For the compound `CC1=C(N)C(=O)c2ccccc2C1=O` [Compound 1e, 2-amino-3-methyl-1,4-naphthoquinone], the “Safety Index TC50/PC50” value is recorded as 31.
As for `O=C(O)C1=CC(=O)c2ccccc2C1=O` [Compound 1f], the “Safety Index TC50/PC50” value is on record as 140.
Take `O=C1C=C(O)C(=O)c2ccccc21` [Compound 1g]: the “Safety Index TC50/PC50” value is 100.
The same measure, in the same setting: in the case of `CNC1=CC(=O)c2ccccc2C1=O` [Compound 2a, 2-(methylamino)naphthalene-1,4-dione] it was 74.
For the compound `CCNC1=CC(=O)c2ccccc2C1=O` [Compound 2b, 2-(ethylamino)naphthalene-1,4-dione], the “Safety Index TC50/PC50” value is 106.
With `CC(C)NC1=CC(=O)c2ccccc2C1=O` [Compound 2d, 2-(isopropylamino)naphthalene-1,4-dione], the “Safety Index TC50/PC50” value was determined as 27.
In the case of `O=C1C=C(Nc2ccccc2)C(=O)c2ccccc21` [Compound 2i, 2-(phenylamino)naphthalene-1,4-dione], the “Safety Index TC50/PC50” value turned out to be 109.
On to `Cc1ccc(CNC2=CC(=O)c3ccccc3C2=O)cc1` [Compound 2r, 2-((4-methylbenzyl)amino)naphthalene-1,4-dione], for which the “Safety Index TC50/PC50” value is reported as 1,515.

The same data set, now with this note: HT22 cells without glutamate, 24 hrs, MTS; concentration producing 50% toxicity; read-out: Toxicity TC50.
As for `O=C1C=CC(=O)c2ccccc21` [Compound 1a, 1,4-naphthoquinone, reference compound], the CC50 was determined as 19000 nM.
Turning to `CC1=C(C)C(=O)c2ccccc2C1=O` [Compound 1c], the CC50 turned out to be 30000 nM.
For `NC1=CC(=O)c2ccccc2C1=O` [Compound 1d, 2-amino-1,4-naphthoquinone], the CC50 was determined as 49000 nM.
Still for that read-out and setting: in the case of `CC1=C(N)C(=O)c2ccccc2C1=O` [Compound 1e, 2-amino-3-methyl-1,4-naphthoquinone] it was 54000 nM; in that of `O=C(O)C1=CC(=O)c2ccccc2C1=O` [Compound 1f], more than 100000 nM.
Turning to `O=C1C=C(O)C(=O)c2ccccc21` [Compound 1g], the CC50 was more than 100000 nM.
`CNC1=CC(=O)c2ccccc2C1=O` [Compound 2a, 2-(methylamino)naphthalene-1,4-dione]: the CC50 is more than 100000 nM.
Consider `CCNC1=CC(=O)c2ccccc2C1=O` [Compound 2b, 2-(ethylamino)naphthalene-1,4-dione], for which the CC50 came to 81000 nM.
The same measure, in the same setting: the same measure for `CC(C)NC1=CC(=O)c2ccccc2C1=O` [Compound 2d, 2-(isopropylamino)naphthalene-1,4-dione]: 46000 nM; for `O=C1C=C(Nc2ccccc2)C(=O)c2ccccc21` [Compound 2i, 2-(phenylamino)naphthalene-1,4-dione]: 7000 nM.
Consider `Cc1ccc(CNC2=CC(=O)c3ccccc3C2=O)cc1` [Compound 2r, 2-((4-methylbenzyl)amino)naphthalene-1,4-dione], for which the CC50 was more than 100000 nM.

Values taken from patent publication US10391070B2, “Compositions and methods for treating neurological diseases or injury” (MUSC FOUNDATION FOR RESEARCH DEVELOPMENT, priority 2012, dated 2019).
